Data as given in patent US8546386B2, “Corrosion and microbial control in hydrocarbonaceous compositions” (Dow Global Technologies LLC, priority 2008, dated 2013).

What was measured:
Format in all cases: cell-based
[1] = test system: mixed inoculum (Ps. aeruginosa, Y. tropicalis, H. resinae); experiment: Microbial resistance of biodiesel fuel, overall statements; conditions: absence of biocide
[2] = test system: Hormoconis resinae ATCC#20495; experiment: Microbial testing in biodiesel fuel, plate count; conditions: no biocide
[3] = test system: Pseudomonas aeruginosa ATCC#33988; experiment: Microbial testing in biodiesel fuel, plate count; conditions: no biocide

Structure (SMILES) | effect on microbial resistance of biodiesel [1] | Mold (H. resinae) count ([2]; additive 500 ppm, Week 1) [Mold/ml] | Mold (H. resinae) count ([2]; additive 500 ppm, Week 2) [Mold/ml] | Mold (H. resinae) count ([2]; additive 500 ppm, Week 3) [Mold/ml] | Mold (H. resinae) count ([2]; additive 500 ppm, Week 4) [Mold/ml] | Mold (H. resinae) count ([2]; additive 1500 ppm, Week 1) [Mold/ml] | Mold (H. resinae) count ([2]; additive 1500 ppm, Week 2) [Mold/ml] | Mold (H. resinae) count ([2]; additive 1500 ppm, Week 3) [Mold/ml] | Mold (H. resinae) count ([2]; additive 1500 ppm, Week 4) [Mold/ml] | Bacteria (Ps. aeruginosa) count ([3]; additive 500 ppm, Week 1) [Bact/ml] | Bacteria (Ps. aeruginosa) count ([3]; additive 500 ppm, Week 2) [Bact/ml] | Bacteria (Ps. aeruginosa) count ([3]; additive 500 ppm, Week 3) [Bact/ml] | Bacteria (Ps. aeruginosa) count ([3]; additive 500 ppm, Week 4) [Bact/ml] | Bacteria (Ps. aeruginosa) count ([3]; additive 1500 ppm, Week 1) [Bact/ml] | Bacteria (Ps. aeruginosa) count ([3]; additive 1500 ppm, Week 2) [Bact/ml] | Bacteria (Ps. aeruginosa) count ([3]; additive 1500 ppm, Week 3) [Bact/ml] | Bacteria (Ps. aeruginosa) count ([3]; additive 1500 ppm, Week 4) [Bact/ml]
CCCCCCCC/C=C\CCCCCCCC(=O)[O-].[K+] [KOH/Oleic, potassium oleate] | no effect |  |  |  |  |  |  |  |  |  |  |  |  |  |  |  | 
CCCCCCCC/C=C\CCCCCCCC(=O)O [Oleic Acid, oleic acid] | no effect | 1.70E+05 | 6.00E+05 | 8.20E+05 | 7.80E+03 | 6.40E+04 | 7.70E+05 | 6.00E+05 | 9.80E+03 | 7.80E+05 | 8.80E+05 | 7.40E+05 | 8.00E+05 | 5.00E+04 | 2.00E+05 | 1.30E+05 | 3.20E+05
